# The Deep4Chem optical property database
# Values joined by “and” are separate entries in the source; they are usually repeats but may differ in a detail not shown here. Equal values may be shown once.
# Experiment: solvent given as SMILES
structure (smiles),measurement,setting,value
[O-][n+]1c(/C=C/c2ccc3ccccc3c2)nc(N2CCOCC2)c2c1CCCC2,emission maximum,in ClCCl,546 nm
CC1=C(/C=C/c2ccccc2)C(C)=[N+]2C1=C(c1ccccc1)c1c(C)c(/C=C/c3ccccc3)c(C)n1[B-]2(F)F,emission maximum,in ClC(Cl)Cl,633 nm
c1ccc2c(c1)ccc1ccc3ccc4ccc5ccccc5c4c3c12,emission maximum,in ClCCl,476 nm
CC1=CC(C)=[N+]2C1=C(c1c3ccccc3cc3ccccc13)c1c(C)cc(C)n1[B-]2(F)F,emission maximum,in CC#N,512 nm
same,emission maximum,in CCCCCC,515 nm
same,emission maximum,in CCO,513 nm
same,emission maximum,in CN(C)C=O,518 nm
same,emission maximum,in Cc1ccccc1,521 nm
same,emission maximum,in ClCCl,517 nm
N[C@@H](Cc1ccc(O)cc1)C(=O)O,emission maximum,in O,300 nm
CC1(C)c2ccccc2N(c2ccc3c(c2)S(=O)(=O)c2cc(N4c5ccccc5C(C)(C)c5ccccc54)ccc2C3(C)C)c2ccccc21,emission maximum,in Cc1ccccc1,466.12 nm
same,emission maximum,in ClCCl,506 nm
N#Cc1ccc(-c2nc(-c3ccccc3)c3ccccn23)cc1,emission maximum,in C1CCCCC1,444 nm
same,emission maximum,in CC#N,453 nm
same,emission maximum,in CO,487 nm
same,emission maximum,in ClCCl,477 nm
same,emission maximum,in O,470 nm
CCOC(=O)c1ccccc1-c1c2ccc(=O)cc-2oc2cc(OC(=O)[C@H](CO[Si](C)(C)C(C)(C)C)NC(=O)OC(C)(C)C)ccc12,emission maximum,in C1CCOC1,512 nm
same,emission maximum,in CC#N,542 nm
same,emission maximum,in CCO,525 nm
same,emission maximum,in CS(C)=O,547 nm
CCCCC(CC)CN1C(=O)c2cc(Oc3ccc(OC)cc3)c3c4c(Oc5ccc(C(C)(C)C)cc5)cc5c6c(cc(Oc7ccc(C(C)(C)C)cc7)c(c7c(Oc8ccc(OC)cc8)cc(c2c37)C1=O)c64)C(=O)N(c1c(C(C)C)cccc1C(C)C)C5=O (stereo not drawn),emission maximum,in Cc1ccccc1,608 nm
FC(F)(F)c1ccc(-c2ncc3ccccn23)cc1,emission maximum,in ClC(Cl)Cl,459 nm
CCOC(=O)C1=C(N)n2c(=O)c3ccccc3c(=O)n2C1c1cccs1 (stereo not drawn),emission maximum,in CS(C)=O,439 nm
c12c3c4c5c1c1c6c7c2c2c8c3c3c9c4c4c%10c5c5c1c1c6c6c%11c%12c%13c%14c%15c%16c%17c%14c%14c%18c%13c%11c1c1c5c%10c5c(c%14c%10c%17c%11c%13c%16c%14c%16c%15c%12c%12c%16c(c2c7c%126)c2c8c3c(c%13c%142)c2c9c4c5c%10c%112)c%181,emission maximum,in CC1CCCCC1,650 nm
CN1CCN(CCCN2c3ccccc3Sc3ccc(C(F)(F)F)cc32)CC1,emission maximum,in CC#N,470 nm
same,emission maximum,in CO,467 nm
same,emission maximum,in O,482 nm
F[B-]1(F)Oc2ccccc2-c2c3c(c4c([n+]21)CCc1ccccc1-4)CCc1ccccc1-3,emission maximum,in ClCCl,442 nm
CC1=[N+]2C(=C(Oc3cc(C)c4c(c3)CC[C@@](C)(CCC[C@H](C)CCC[C@H](C)CCCC(C)C)O4)c3ccc(C)n3[B-]2(F)F)C=C1c1cc2n(c1)[B-](F)(F)[N+]1=CC=CC1=C2c1c(C)cc(C)cc1C,emission maximum,in C1CCCCC1,632 nm
same,emission maximum,in CCOC(C)=O,662 nm
CCOC(=O)c1cc(C(=O)NCc2ccccc2)c2ccc(N(C)C)cc2n1,emission maximum,in CCO,586 nm
COc1c2ccccc2c(OC)c2c(C#C[Si](C(C)C)(C(C)C)C(C)C)c3cc4ccccc4cc3c(C#C[Si](C(C)C)(C(C)C)C(C)C)c12,emission maximum,in ClCCl,712 nm
COc1ccc(-n2nc(C#N)c(N3CCC(N4CCCCC4)CC3)n2)cc1,emission maximum,in CC#N,403 nm
COc1ccc(C2=N/C(=C\c3ccccc3)C(=O)N2)cc1OC,emission maximum,in C1COCCO1,455 nm
CC1(C)c2cc(-n3c4ccccc4c4ccccc43)ccc2N(c2ccc(-c3cc(-c4ccccc4)nc(-c4ccccc4)n3)cc2)c2ccc(-n3c4ccccc4c4ccccc43)cc21,emission maximum,in Cc1ccccc1,494.44 nm
COc1ccc(OC)c(C(=O)O)c1,emission maximum,in CO,388 nm
C[N+]1=C(/C=C/C=C2/N(CCC[N+](C)(C)C)c3ccc(Br)cc3C2(C)C)C(C)(C)c2ccccc21,emission maximum,in CS(C)=O,568 nm
CCCCN(CCCC)c1ccc2c(c1)C#CC#Cc1cc(C(F)(F)F)ccc1C#Cc1cc(c3cc1C#Cc1ccc(N(CCCC)CCCC)cc1C#CC#Cc1cc(C(F)(F)F)ccc1C#C3)C#C2,emission maximum,in ClCCl,558 nm
same,emission maximum,in c1ccccc1,522 nm
CCN1c2ccc(/C=N/Nc3ccccn3)cc2Sc2cc(-c3cccc4ccccc34)ccc21,emission maximum,in C1CCOC1,487 nm
same,emission maximum,in CS(C)=O,498 nm
same,emission maximum,in Cc1ccccc1,482 nm
same,emission maximum,in ClCCl,491 nm
CN(C)c1ccc(-c2nc(-c3ccccc3)c3ccccn23)cc1,emission maximum,in C1CCCCC1,482 nm
same,emission maximum,in CC#N,509 nm
same,emission maximum,in CO,500 nm
same,emission maximum,in ClCCl,495 nm
same,emission maximum,in O,512 nm
COc1cc(C2=CC3=C(c4c(C)cc(C)cc4C)c4cc(-c5cc(OC)c(OC)c(OC)c5)c(-c5cc(OC)c(OC)c(OC)c5)n4[B-](F)(F)[N+]3=C2c2cc(OC)c(OC)c(OC)c2)cc(OC)c1OC,emission maximum,in C1CCCCC1,670 nm
same,emission maximum,in C1CCOC1,662 nm
same,emission maximum,in CC#N,628 nm
same,emission maximum,in Cc1ccccc1,677 nm
same,emission maximum,in ClCCl,651 nm
CC1=CC(C)=[N+]2C1=C(c1ccccc1)c1c(C)cc(/C=C/c3ccc(N(C)C)cc3)n1[B-]2(F)F,emission maximum,in CCOCC,638 nm
CCCCCCCCN1c2ccccc2Sc2cc(/C=C/c3ccc(N(c4ccc(/C=C/c5ccc6c(c5)Sc5ccccc5N6CCCCCCCC)cc4)c4ccc(/C=C/c5ccc(/C=C/c6ccc(N(c7ccc(/C=C/c8ccc(N(c9ccccc9)c9ccccc9)cc8)cc7)c7ccc(/C=C/c8ccc(N(c9ccccc9)c9ccccc9)cc8)cc7)cc6)c6nsnc56)cc4)cc3)ccc21,emission maximum,in C1CCOC1,653 nm
same,emission maximum,in CCOC(C)=O,646 nm
same,emission maximum,in CN(C)C=O,749 nm
same,emission maximum,in Cc1ccccc1,620 nm
same,emission maximum,in ClC(Cl)Cl,668 nm
same,emission maximum,in ClCCl,708 nm
O=CC1=C(c2ccc(-c3cccs3)s2)CC1,emission maximum,in C1CCOC1,470 nm
same,emission maximum,in CC#N,493 nm
same,emission maximum,in CCCCCC,464 nm
same,emission maximum,in CCO,516 nm
same,emission maximum,in OCCOCCO,526 nm
same,emission maximum,in c1ccncc1,495 nm
CN(C)c1ccc2nc(-c3ccccc3)sc2c1,emission maximum,in C1CCCCC1,393 nm
same,emission maximum,in CC#N,474 nm and 475 nm
same,emission maximum,in CC(C)O,468 nm and 488.03 nm
same,emission maximum,in CO,484 nm and 483 nm
same,emission maximum,in CS(C)=O,486 nm and 486.82 nm
same,emission maximum,in ClC(Cl)Cl,442 nm and 443 nm
same,emission maximum,in c1ccccc1,429 nm and 441.38 nm
CCOC(=O)CN(CC(=O)OCC)c1ccc(-c2cc(-c3ccccn3)nc(-c3ccccn3)c2)cc1,emission maximum,in CC#N,452 nm
same,emission maximum,in CCOC(C)=O,419 nm
same,emission maximum,in CN(C)C=O,458 nm
same,emission maximum,in CS(C)=O,466 nm
same,emission maximum,in c1ccccc1,400 nm
CC(=O)OCCN1C(=O)c2cccc3c(Oc4ccc(C=O)cc4)ccc(c23)C1=O,emission maximum,in ClC(Cl)Cl,411 nm
Oc1ccc(-c2cccs2)cc1-c1nc2ccccc2s1,emission maximum,in CCO,428 nm
same,emission maximum,in ClCCl,405 nm
same,emission maximum,in O,566 nm
c1ccc(N2c3ccc4ccccc4c3-c3c4ccccc4nc[n+]3[B-]2(c2ccccc2)c2ccccc2)cc1,emission maximum,in C1CCC2CCCCC2C1,642 nm
same,emission maximum,in C1CCCCC1,640 nm
same,emission maximum,in C1CCOC1,665 nm
same,emission maximum,in CC#N,677 nm
same,emission maximum,in CC(C)=O,675 nm
same,emission maximum,in CCCCCC,641 nm
same,emission maximum,in CCOC(C)=O,665 nm
same,emission maximum,in CN(C)C=O,680 nm
same,emission maximum,in Cc1ccccc1,654 nm
same,emission maximum,in ClC(Cl)Cl,676 nm
CCOC(=O)c1c(-c2cc3c(ccc4ccccc43)oc2=O)nn(-c2cccc(Cl)c2)c1C(=O)OCC,emission maximum,in ClCCl,442 nm
Oc1ccc(C2=[N+]3C(=C(c4ccccc4)c4cccn4[B-]3(F)F)C=C2)cc1,emission maximum,in ClC(Cl)Cl,564 nm
COC(=O)c1[nH]c(-c2ccc(Br)cc2)c2nnc3ccc(OC)cc3c12,emission maximum,in ClCCl,475 nm
Cc1ccc(-c2cc(-c3ccccc3)c3c(N)nc(N4CCCC4)c(C#N)c3n2)cc1,emission maximum,in CC#N,528 nm
same,emission maximum,in CC(C)=O,524 nm
same,emission maximum,in CC(C)O,518 nm
same,emission maximum,in CO,527 nm
same,emission maximum,in ClC(Cl)Cl,510 nm
same,emission maximum,in ClCCl,517 nm
same,emission maximum,in c1ccccc1,504 nm
CN(C)c1ccc2c3c(c(=O)oc2c1)C=c1cc2c(cc1O3)=[N+](CCC(=O)O)CCC2,emission maximum,in CC#N,644 nm
same,emission maximum,in CO,640 nm
same,emission maximum,in ClCCl,638 nm
same,emission maximum,in O,641 nm
Cc1cc(C)c2c(c1)c1cc(C)cc(C)c1n2-c1ccc2c(c1)B(c1c(C(C)C)cc(C(C)C)cc1C(C)C)c1cc(-n3c4c(C)cc(C)cc4c4cc(C)cc(C)c43)ccc1N2c1ccccc1,emission maximum,in C1CCOC1,447.96 nm
same,emission maximum,in CCOC(C)=O,447.96 nm
same,emission maximum,in Cc1ccccc1,441.5 nm
same,emission maximum,in ClCCl,453.4 nm
same,emission maximum,in c1cc(-c2cccc(-n3c4ccccc4c4ccccc43)c2)cc(-n2c3ccccc3c3ccccc32)c1,451 nm
COC(=O)c1c(C(=O)OC)c2ccc(-c3ccccc3)nn2c1C,emission maximum,in CCCCCC,471 nm
CCC1=C(C)C2=Cc3c4ccccc4c4n3[B-](c3ccc5ccc6cccc7ccc3c5c67)(Oc3ccccc3-4)[N+]2=C1C (stereo not drawn),emission maximum,in CC#N,635 nm
same,emission maximum,in CCCCCC,638 nm
same,emission maximum,in Cc1ccccc1,642 nm
same,emission maximum,in ClCCl,640 nm
O=Cc1ccc(-c2ccc3c(c2)C(=O)c2cc(-c4ccc(C=O)cc4)ccc2-3)cc1,emission maximum,in C1CCOC1,371 nm
